In brackets after ≈: the same amount, converted by molar mass. Peptide text beside a SMILES is read from it.
T1: NTHi #1128 fimbrial protein (Haemophilus influenzae, UniProt P45996)
T1 construct: isolated, reassembled, homologous fimbrial protein from NTHi; endogenous in cells; host or cells: NTHi strain #1128 (protein isolated from the bacterial outer membrane)
T1 sequence (P45996 22-359): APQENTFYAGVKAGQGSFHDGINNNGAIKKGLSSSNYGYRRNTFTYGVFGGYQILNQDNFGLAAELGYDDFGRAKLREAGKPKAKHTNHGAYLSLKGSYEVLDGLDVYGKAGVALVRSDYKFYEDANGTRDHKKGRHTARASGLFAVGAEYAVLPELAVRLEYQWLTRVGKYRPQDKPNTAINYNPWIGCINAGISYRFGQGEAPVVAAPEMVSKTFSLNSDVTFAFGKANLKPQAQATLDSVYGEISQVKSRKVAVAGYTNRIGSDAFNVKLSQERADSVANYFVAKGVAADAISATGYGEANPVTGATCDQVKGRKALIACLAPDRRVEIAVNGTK

T2: NTHi #1128 isolated fimbrin protein (25 and 37 kDa species) (Haemophilus influenzae, UniProt P45996)
T2 construct: isolated, reassembled, homologous fimbrial protein from NTHi; endogenous in cells; host or cells: NTHi strain #1128 (protein isolated from the bacterial outer membrane)
T2 sequence (P45996 22-359): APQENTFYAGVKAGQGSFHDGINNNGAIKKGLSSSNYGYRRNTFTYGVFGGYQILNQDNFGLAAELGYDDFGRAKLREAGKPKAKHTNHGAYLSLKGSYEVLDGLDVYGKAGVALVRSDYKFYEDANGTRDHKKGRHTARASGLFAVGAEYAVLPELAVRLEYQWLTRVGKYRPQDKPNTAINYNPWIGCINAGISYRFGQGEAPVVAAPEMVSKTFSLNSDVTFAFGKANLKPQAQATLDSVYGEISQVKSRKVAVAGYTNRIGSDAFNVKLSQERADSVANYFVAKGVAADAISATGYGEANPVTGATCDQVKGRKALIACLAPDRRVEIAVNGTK


Key:
[1] = tested on: antibodies in sera directed to NTHi; assay: Anti-serum ELISA using synthetic chimeric fimbrin peptides as coating antigen; format: binding; settings: peptide as ELISA antigen, chinchilla sera
Experimental: An anti-serum Elisa was performed by first coating an immulon 1, flat bottom plate containing 96 wells with varied concentrations of LB1 and LB2 according to the dilute checkerboard assay method. The LB1 and LB2 were diluted first in carbonate-bicarbonate buffer at pH 9.6. This coating buffer contained 1.59 g/L NaCO3, 2.93 g/L NaHCO3 at a pH of 9.6. 50 μl of the LB1 or LB2 were added for each well and incubated at 4° C. overnight. After the overnight incubation, the liquid was emptied from the plates and 100 μl per well of 10 mM PBS at pH 7.4 with 0.5% BSA was added, and incubated at 37° C. for 1 hour. Next, the liquid was emptied from the plate and washed three times with 10 mM PBS at pH 7.4 with 0.05% Tween 20 (PBT) at a volume of 250 μl per well. Then the plate was emptied by pounding three times onto paper towels. Next, 50 μl per well of the sera to be assayed was diluted in 10 mM PBS at a pH of 7.4 and added to the plate and incubated at 37° C. for one hour. The liquid was then emptied from the plates and washed three times with 10 mM PBS at pH 7.4 containing 0.05% Tween 20 (PBT) at a volume of 250 μl per well and the plates were pounded three times onto paper towels. Next, 500 μl per well of secondary antibody diluted 1 to 1000 times in PBT was added. Where the sera to be assayed was rabbit, the secondary antibody was HRP chimeric goat anti-rabbit antibody. Where the sera to be assayed was chinchilla sera, then the secondary antibody was HRP protein A. The secondary antibody was incubated at 37° C. for one hour. Next, the liquid was emptied from the plates and washed three times with 10 mM PBS at pH 7.4 containing 0.05% Tween 20. Next, one tablet o-phenylenediamine was suspended in 12 ml citrate phosphate buffer at pH 5.0. The citrate phosphate buffer contained 0.1 M citric acid, 1.0 M Na2HPO4 at pH 5.0. Next 12 μl 30% H2O2 was added to the o-phenylenediamine solution and 100 μl of this mixture was added to each well. The solution was incubated at room temperature in the dark and after 10 minutes, the absorbencies were read at 400 nm. The reaction was stopped at 16 minutes with 100μ per well of 2NH2SO4 and the plates were then read at 490 nm.

[2] = Solubility in water; format: physicochemical
[3] = tested on: NTHi strain 1128; assay: Nasopharyngeal colonization by NTHi in immunized chinchillas (nasopharyngeal lavage); format: in vivo, chinchilla
Experimental: Nasopharyngeal colonization by NTHi was/were examined in two separate trials, study A and study B.
In study A, five cohorts of four chinchillas each were actively immunized with one of the following preparations: in complete Freund's adjuvant or a saline control preparation; 100 μg of the synthetic chimeric fimbrin peptide LB1, 100 μg of a total outer membrane protein preparation from strain #1128; 100 μg of the synthetic chimeric fimbrin peptide LB2; 10 μg isolated fimbrin protein preparation from strain #1128. The total outer membrane preparation and fimbrin were assessed for endotoxin content prior to their use as an immunogen via a chromogenic Amoebocyte Lysate assay which is commercially available from Whittaker Bioproducts under the designation QCL-1000. The preparations were subcutaneously injected into the chinchillas.
Then 30 days later the animals received a booster of one-half of the initial dosage of the same immunogen but in incomplete Freund's adjuvant. Ten days later they received 6×10^6 TCID50 adenovirus intranasally. Thereafter, these five cohorts were divided into two groups each and challenged intranasally, about 5×10^7cfu of NTHi strain 1128. The chinchillas were subject to nasopharyngeal lavage over a 21 day period, and the lavage fluid was examined and quantified for NTHi. The NTHi concentration was determined by plating on selective media. The NTHi lavage fluid concentration was plotted over time.
Again, the NTHi lavage fluid concentration was plotted over time.

[4] = biological target: T1, NTHi #1128 fimbrial protein; format: in vivo, non-typable Haemophilus influenzae; settings: chinchilla sera 2 weeks after second dose; ELISA
Experimental: (§1) The chinchillas received a second dose of 50 μg of either the LB1 or LB2 in incomplete Freund's adjuvant 30 days later. Sera was obtained 2 weeks after the second dose.

[5] = tested on: fimbrin from NTHi #1128 and NTHi #86-028NP; assay: Western immunoblot of chinchilla antisera; format: binding, non-typable Haemophilus influenzae; settings: for Western immunoblot recognition by antisera of homologous fimbrin / peptides: NTHi #1128 OMP preparation, isolated fimbrin, LB1, LB2; for Western immunoblot recognition by antisera of heterologous fimbrin: NTHi #86-028NP
Text: FIG. 2A is a western immunoblot of chinchilla anti-LB1 antisera. Lane a contains a mixture of sera and NTHi #1128 enriched OMP preparation. Lane b contains a mixture of sera and isolated fimbrin from NTHi #1128. Lane c contains a mixture of sera and LB1. Lane d contains a mixture of sera and LB2. Lane e contains a mixture of sera and NTHi #86-028NP enriched OMP preparation. Lane f contains a mixture of sera and isolated fimbrin from NTHi #86-028NP. The lane marked “Std” contains pre-stained molecular mass markers; mass in kDa is given along left side of immunoblot.
FIG. 2B is a western immunoblot of chinchilla anti-LB2 antisera. Lane a contains a mixture of sera and NTHi #1128 enriched OMP preparation. Lane b contains a mixture of sera and isolated fimbrin from NTHi #1128. Lane c contains a mixture of sera and LB1. Lane D contains a mixture of sera and LB2. Lane e contains a mixture of sera and NTHi #86-028NP enriched OMP preparation. Lane f contains a mixture of sera and isolated fimbrin from NTHi #86-028NP. The lane marked “Std” contains pre-stained molecular mass markers; mass in kDa is given along left side of immunoblot.
FIG. 2C is a western immunoblot of chinchilla anti-fimbrial protein antisera. Lane a contains a mixture of sera and NTHi #1128 enriched OMP preparation. Lane b contains a mixture of sera and isolated fimbrin from NTHi #1128. Lane c contains a mixture of sera and LB1. Lane d contains a mixture of sera and LB2. Lane e contains a mixture of sera and NTHi #86-028NP enriched OMP preparation. Lane f contains a mixture of sera and isolated fimbrin from NTHi #86-028NP. The lane marked “Std” contains pre-stained molecular mass markers; mass in kDa is given along left side of immunoblot.
as §1

[6] = biological target: T2, NTHi #1128 isolated fimbrin protein (25 and 37 kDa species); format: binding, non-typable Haemophilus influenzae; settings: rabbit antisera; fimbrin isolated from NTHi strain #1128
Experimental: Two rabbits were immunized with the LB1 synthetic chimeric fimbrin peptide and two rabbits were immunized with the LB2 synthetic chimeric fimbrin peptide. Rabbits received an initial immunizing dose of 500 μg of either the LB1 or LB2 in complete Freund's adjuvant. The rabbits received a second dose of 400 μg of the synthetic chimeric fimbrin peptide 21 days later. The rabbits received a third dose of synthetic chimeric fimbrin peptide in complete Freund's adjuvant 42 days later with 400 μg of the same peptide in either incomplete Freud's adjuvant (IFA) or phosphate buffered saline (PBS) (one rabbit per diluent). Sera was obtained 3 weeks after each dose. The sera from each animal was assessed for titer and specificity against LB1, LB2 and fimbrial protein, by both ELISA and Western blot.

[7] = tested on: NTHi strain #1128; assay: Inhibition of adherence of NTHi to active ciliated chinchilla tracheal mucosal epithelium; format: cell-based, non-typable Haemophilus influenzae; settings: dose dependence, 50 and 100 μg/ml
Experimental: LB1 and LB2 were each added to the lumen of excised 15 chinchilla tracheas and incubated for about 1 hour. Next 10^8cFu NTHi/ml were added to the cultures and incubated for about 1 hour. The tracheas were rinsed, homogenized, diluted and plated onto chocolate agar. The NTHi colonies were then counted.

[8] = tested on: native fimbriae of whole, unfixed NTHi strain #1128; assay: Indirect immunogold labeling of unfixed NTHi with chinchilla antiserum (transmission electron micrograph); format: binding, non-typable Haemophilus influenzae
Text: FIG. 3 is a transmission electron micrograph of two unfixed NTHi strain #1128 cells, shown at bottom of the Figure, which were indirectly immuno-labeled with chinchilla anti-LB1IFA serum and 10 nm gold-chimeric Protein A.
Two unfixed NTHi strain #1128 cells were indirectly immunolabeled with chinchilla anti-LB1IFA serum and 10 nm gold-chimeric Protein A. The preparation was subjected to stable, low-angle shadow casting with platinum and palladium to impart a sense of height to low-profile fimbriae.

[9] = study A, chinchillas immunized with 100 μg peptide plus booster, intranasal challenge about 5×10^7 cfu NTHi strain 1128, FIG. 4
[10] = study B, higher intranasal challenge dose 1.5×10^8 cfu/animal NTHi #1128, FIG. 5

Molecule | Reciprocal Titer ([1]; post infection) | Reciprocal Titer ([1]; pre infection) | solubility [2] [µg/mL] | NTHi in nasopharyngeal lavage fluid by Day 21 [3, 9] | NTHi in nasopharyngeal lavage fluid by Day 21 [3, 10] | Reciprocal Titer of Sera against: NTHi #1128 fimbrial protein [4] | Western immunoblot recognition by antisera of homologous fimbrin / peptides [5] | Western blot reactivity of antisera with fimbrin [6] | Effect on inhibition of adherence of NTHi strain #1128 to ciliated chinchilla tracheal epithelium [7] | Recognition of native fimbriae by antiserum (immunogold labeling) [8] | Western immunoblot recognition by antisera of heterologous fimbrin [5]
CC[C@H](C)[C@H](NC(=O)[C@H](CC(C)C)NC(=O)[C@H](CO)NC(=O)[C@H](CC(C)C)NC(=O)[C@H](CC(C)C)NC(=O)[C@H](CCCCN)NC(=O)[C@H](CC(C)C)NC(=O)[C@H](CO)NC(=O)[C@@H]1CCCN1C(=O)CNC(=O)[C@H](CCCCN)NC(=O)[C@H](CCCCN)NC(=O)[C@H](Cc1c[nH]cn1)NC(=O)[C@H](CC(=O)O)NC(=O)[C@H](CCCNC(=N)N)NC(=O)[C@@H](NC(=O)CNC(=O)[C@H](CC(N)=O)NC(=O)[C@H](C)NC(=O)[C@H](CC(=O)O)NC(=O)[C@H](CCC(=O)O)NC(=O)[C@H](Cc1ccc(O)cc1)NC(=O)[C@H](Cc1ccccc1)NC(=O)[C@H](CCCCN)NC(=O)[C@H](Cc1ccc(O)cc1)NC(=O)[C@H](CC(=O)O)NC(=O)[C@H](CO)NC(=O)[C@@H](N)CCCNC(=N)N)[C@@H](C)O)C(=O)N[C@@H](CCCCN)C(=O)NCC(=O)N[C@H](C(=O)N[C@H](C(=O)N[C@H](C(=O)N[C@@H](Cc1c[nH]cn1)C(=O)N[C@@H](CCCNC(=N)N)C(=O)N[C@@H](CC(C)C)C(=O)N[C@@H](CCC(=O)O)C(=O)NCC(=O)N[C@H](C(=O)N[C@@H](CCC(=O)O)C(=O)O)C(C)C)C(C)C)[C@@H](C)CC)C(C)C [LB1] (H-RSDYKFYEDANGTRDHKKGPSLKLLSLIKGVIVHRLEGVE-OH) | >500 | ≦100 | ~10000 (≈ 2190 µM) | 0 | 0 | 15,000 | only recognized the LB1 | sera reactivity to fimbrin (both molecular weight species) occurred only after immunization | dose-dependent effect on inhibition of adherence | – | –
CC[C@H](C)[C@H](NC(=O)[C@H](CC(C)C)NC(=O)[C@H](CO)NC(=O)[C@H](CC(C)C)NC(=O)[C@H](CC(C)C)NC(=O)[C@H](CCCCN)NC(=O)[C@H](CC(C)C)NC(=O)[C@H](CO)NC(=O)[C@@H]1CCCN1C(=O)CNC(=O)[C@@H](NC(=O)[C@H](CC(N)=O)NC(=O)[C@@H]1CCCN1C(=O)[C@H](CCCCN)NC(=O)[C@H](CC(=O)O)NC(=O)[C@H](CCC(N)=O)NC(=O)[C@@H]1CCCN1C(=O)[C@H](CCCNC(=N)N)NC(=O)[C@H](Cc1ccc(O)cc1)NC(=O)[C@H](CCCCN)NC(=O)CNC(=O)[C@@H](NC(=O)[C@H](CCCNC(=N)N)NC(=O)[C@@H](NC(=O)[C@H](CC(C)C)NC(=O)[C@H](Cc1c[nH]c2ccccc12)NC(=O)[C@H](CCC(N)=O)NC(=O)[C@@H](N)Cc1ccc(O)cc1)[C@@H](C)O)C(C)C)[C@@H](C)O)C(=O)N[C@@H](CCCCN)C(=O)NCC(=O)N[C@H](C(=O)N[C@H](C(=O)N[C@H](C(=O)N[C@@H](Cc1c[nH]cn1)C(=O)N[C@@H](CCCNC(=N)N)C(=O)N[C@@H](CC(C)C)C(=O)N[C@@H](CCC(=O)O)C(=O)NCC(=O)N[C@H](C(=O)N[C@@H](CCC(=O)O)C(=O)O)C(C)C)C(C)C)[C@@H](C)CC)C(C)C [LB2] (H-YQWLTRVGKYRPQDKPNTGPSLKLLSLIKGVIVHRLEGVE-OH) | 500 | ≦100 | ~10000 (≈ 2180 µM) | 0 | performed less well | 10,000 | recognized homologous fimbrin | – | – | Equivalent results | recognized heterologous fimbrin contained in the outer membrane preparation
fimbrin: isolated fimbrin protein preparation from NTHi strain #1128, used as comparison immunogen (protein) APQENTFYAGVKAGQGSFHDGINNNGAIKKGLSSSNYGYRRNTFTYGVFGGYQILNQDNFGLAAELGYDDFGRAKLREAGKPKAKHTNHGAYLSLKGSYEVLDGLDVYGKAGVALVRSDYKFYEDANGTRDHKKGRHTARASGLFAVGAEYAVLPELAVRLEYQWLTRVGKYRPQDKPNTAINYNPWIGCINAGISYRFGQGEAPVVAAPEMVSKTFSLNSDVTFAFGKANLKPQAQATLDSVYGEISQVKSRKVAVAGYTNRIGSDAFNVKLSQERADSVANYFVAKGVAADAISATGYGEANPVTGATCDQVKGRKALIACLAPDRRVEIAVNGTK | – | – | – | – | – | – | recognizes itself | – | – | – | recognizes a heteroloous fimbrin

Reference: patent US7790172B2, “Methods for reducing nasopharyngeal colonization of non-typable Haemophilus influenzae with synthetic chimeric fimbrin peptides” (priority 1995, dated 2010)
